# Entries after “also recorded” stand apart in the source; their conditions may differ.
# Key:
# [1] = tested on: S. aureus strain CRB∆pbp4; assay: Fractional inhibitory concentration checkerboard, ceftobiprole + putative PBP4 inhibitor, strain CRB∆pbp4; type: cell-based, Staphylococcus aureus
# [2] = tested on: pbp4 expression in S. aureus USA300; assay: qRT-PCR of pbp4 transcript titers, USA300; type: cell-based, Staphylococcus aureus; settings: 25 µM compound, 3 h
# Source text: Given that each of the six compounds appeared to affect PBP4-mediated antibiotic resistance, we considered that their effects may be modulated by either inhibiting the protein’s function or by reducing pbp4 expression, the latter of which may be readily overcome by regulatory mutations that could in-turn easily result in resistance. Thus, we sought to prioritize compounds that may affect the protein’s function and de-prioritize compounds that affect the protein’s expression. Quantitative real-time reverse transcriptase PCR (qRT-PCR) was used to measure the pbp4 transcript titers within USA300 and CRB cells following compound treatment (Figure 2). […] We chose to focus the remainder of our studies on 9314848 (Figure 3A) because the molecule appeared the more druggable and chemically tractable for downstream structure activity relationship studies.
# PBP4 transcript titers of bacterial cells exposed to putative PBP4 inhibitors were measured using real time quantitative PCR (RT-qPCR), as previously described. […] Bacterial RNA was amplified and measured using PerfeCTa SYBR Green FastMix and qScript cDNA SuperMix kits following the manufacturer’s recommendations (QuantaBio, Beverly, MA, USA). […]
# S. aureus USA300 = assay: Triton X-100 susceptibility growth study; type: cell-based, Staphylococcus aureus; settings: wild type USA300, 12.5 µM compound
# Source text: Cheung and colleagues have shown that S. aureus tolerance to Triton X-100 is mediated by PBP4 [25]. More directly, wild type cells are tolerant of 0.1% of the detergent, while pbp4 mutant cells are not. Accordingly, as a first test of whether 9314848 may affect PBP4’s cellular function, we evaluated whether compound treated wild type cells phenocopy the growth defect of pbp4 mutant cells in the presence of 0.1% triton X-100 (Figure 3B).
# The effect of putative PBP4 inhibitors on bacterial growth in media supplemented with Triton X-100 was measured, as previously described. […] Cell suspensions were incubated at 37 °C with aeration and cell density (OD600nm) was recorded hourly for a total of 7–8 h.
# recombinant PBP4 = recombinant PBP4 (Bacillus subtilis, UniProt P40750); assay: Gel electrophoresis BOCILLIN FL labeling of PBP4; type: binding
# Experimental: A second, yet lower resolution, approach was used to verify the impact of 9314848 on PBP4 substrate binding in which the protein was preincubated with compound or control antibiotics then labeled with the BOCILLIN FL and resulting fluorescent labeled protein was visualized following gel electrophoresis.
# The ability of putative PBP4 inhibitors to impact the active site of recombinant PBP4 was assessed using two previously established BOCILLIN-FL Penicillin (Penicillin V conjugated to BODIPY fluorescent dye) binding assays. First, fluorescence polarization assays were performed as previously described, but with minor modifications. Briefly, the indicated amount of the putative PBP4 inhibitor or control antibiotic was incubated with 1 µM recombinant B. subtilis PBP4 or S. aureus PBP2a in potassium phosphate buffer (40 mM K2HPO4 and 10 mM KH2PO4) for 1 h in black 96-well microtiter plates (Corning Life Sciences, Corning, NY, USA). Following incubation, 1 µM (final concentration) BOCILLIN FL penicillin was added, and the mixture was incubated for 30 min. BOCILLIN FL fluorescence polarization was measured at (495 nm excitation and 545 nm emission) in a SpectraMax M5 multimode plate reader (Molecular Devices, San Jose, CA, USA). All assays were repeated at least 8 times, averaged, and values falling outside of 2 standard deviations were considered outliers. The resulting data were plotted as percentage BOCILLIN FL binding inhibition = (T/U) × 100; T = FL polarization of ((PBP4+ BOCILLIN FL) − (PBP4+ BOCILLIN FL + inhibitor compound)), U = FL polarization of ((PBP4 + BOCILLIN FL) − (BOCILLIN FL)). Second, gel electrophoresis and fluorescence detection was used to measure BOCILLIN FL labeling of PBP4 treated with the known PBP4 inhibitor cefoxitin (positive control), kanamycin (negative control) or 9314848 (test compound), as previously described but with minor modifications. Briefly, 1 µM of recombinant PBP4 was mixed with 0, 50, 500, 2000, or 5000 µM 9314848 or control antibiotic in 50 mM phosphate buffer (pH 7.4) and incubated at 37 °C for 30 min. Next 40 μM of BOCILLIN FL was added to the reaction mixture and incubated for an additional 30 min at 37 °C. Reactions were stopped by adding 5× SDS-PAGE gel loading dye, heated at 100 °C for 3 min and separated by electrophoresis in 12% SDS-PAGE (2 h, 120 Volts). BOCILLIN FL labeled PBP4 was imaged at λ = 365 nm using a BioRad Gel Doc EZ Imaging system and the gel was then subsequently stained with Bio-safe Coomassie Brilliant Blue stain (BioRad, Hercules, CA, USA) to measure the amount of protein present in each reaction condition and analyzed using NIH-ImageJ software. The percent BOCILLIN FL binding was calculated by first normalizing the protein present in each reaction condition to that of untreated control and subsequently applying each reaction’s protein normalization factor to each reaction’s fluorescent signal. The percentage BOCILLIN FL binding inhibition was then calculated as the normalized band intensity of antibiotic/compound treated sample as compared to the control sample (PBP4 + BOCILLIN FL in the absence of compound).
# Sequence of recombinant PBP4 (P40750 22-624): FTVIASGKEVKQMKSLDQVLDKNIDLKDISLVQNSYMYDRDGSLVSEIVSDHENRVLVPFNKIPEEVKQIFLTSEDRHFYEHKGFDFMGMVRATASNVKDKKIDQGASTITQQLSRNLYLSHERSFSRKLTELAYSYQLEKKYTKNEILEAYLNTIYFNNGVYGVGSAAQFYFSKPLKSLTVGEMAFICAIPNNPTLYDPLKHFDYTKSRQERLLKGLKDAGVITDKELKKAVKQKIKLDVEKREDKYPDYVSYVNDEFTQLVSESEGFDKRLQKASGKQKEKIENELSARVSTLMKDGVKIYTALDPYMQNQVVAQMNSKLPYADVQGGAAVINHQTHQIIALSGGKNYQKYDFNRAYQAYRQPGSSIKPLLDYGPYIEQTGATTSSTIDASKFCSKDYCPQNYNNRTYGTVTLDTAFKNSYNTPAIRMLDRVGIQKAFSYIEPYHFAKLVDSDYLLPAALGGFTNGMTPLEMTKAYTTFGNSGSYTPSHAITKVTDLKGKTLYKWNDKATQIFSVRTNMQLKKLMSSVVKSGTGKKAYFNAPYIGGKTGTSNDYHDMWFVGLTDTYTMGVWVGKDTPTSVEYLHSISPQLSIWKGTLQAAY
compound,measurement,setting,value
CC1CCN(C(=O)c2cccc(NC(=O)Nc3ccc(Cl)cc3)c2)CC1 [Compound 9314848],MIC,"[1]; Staphylococcus aureus, read-out: CRB∆pbp4 Alone Cmpd (putative PBP4 inhibitor MIC alone)",400 µM
same,CRB∆pbp4 Combination BPR (ceftobiprole MIC in combination),"[1]; strain CRB∆pbp4, ceftobiprole combined with the indicated putative PBP4 inhibitor",0.125 µg/mL
same,CRB∆pbp4 Combination Cmpd (compound concentration in combination),"[1]; strain CRB∆pbp4, compound combined with ceftobiprole",25 µM
same,CRB∆pbp4 Fold-decrease in ceftobiprole resistance in combination,"[1]; strain CRB∆pbp4, in combination with the indicated putative PBP4 inhibitor",2 fold
same,"pbp4 expression (mRNA titer, qRT-PCR)",[2],did not seem to affect pbp4 expression; also recorded: did not significantly impact pbp4 transcription
same,Growth in the presence of Triton X-100,S. aureus USA300; 0.1% Triton X-100,exhibited growth defect
same,Growth in the absence of detergent,S. aureus USA300; no Triton X-100,did not display a growth defect
same,inhibition at 50 µM,"recombinant PBP4; 50 µM compound, read-out: PBP4 BOCILLIN FL binding inhibition (gel-based)",37.5 ± 8.2%
same,inhibition at 5000 µM,"recombinant PBP4; 5000 µM compound, read-out: PBP4 BOCILLIN FL binding inhibition (gel-based)",72.1 ± 13.1%
same,PBP4 BOCILLIN FL binding inhibition (gel-based) at low concentration,recombinant PBP4; concentrations below 50 µM,did not reproducibly demonstrate BOCILLIN FL binding inhibition
